# Measured values published in patent publication US6632921B1, “Seryl-lysyl-based peptide and peptidomimetic inhibitors of N-myristoyl transferase as anti-infective agents” (G. D Searle & Co, priority 1995, dated 2003).
# pEC50, pIC50: −log10 of the molar value. Read-outs that look alike come from different tables or passages of the source. Non-standard residues stand in square brackets, D forms with d. Residues, ends and D or L forms follow the SMILES beside them. Cha = N[C@@H](CC1CCCCC1)C(=O)O; Aun = NCCCCCCCCCCC(=O)O
# Key:
# C. albicans 516 = test: Antifungal susceptibility testing, pH 7.0/35° C., 1x10^3 cells/mL; assay type: cell-based, Candida albicans; details: Candida albicans, 516; pH 7.0/35° C./1x10^3 cells/mL, 48 hrs; read-out: EC50 - 48 HRS C.albicans (516)
# Protocol: (§1) 2) Assay at pH 7.0/35° C. Incubation/(Candida Strains Only).
# (§2) Based on several papers published during 1990-1993 regarding the standardization of testing procedures at multiple research centers, and the finding that, inoculum size, pH of media, and the temperature of incubation drastically affect the antifungal activity of several compounds, particularly in the Azole class of antifungals, an additional assay was configured at pH 7.0 for Candida albicans. [M. A. Pfaller et al, Antimicrobial Agents and Chemotherapy, 34, 1648-1654 (1990); F. C. Odds et al, Antimicrobial Agents and Chemotherapy, 36, 1727-1737 (1992); R. A. Cook et al, Antimicrobial Agents and Chemotherapy, 34, 1542-1545 (1990)]
# (§3) The assay format is identical to the first one with the following modifications: C.albicans cells are diluted to 1×10^3 cells/ml into 2× buffered YNB (YNB buffered with 1.65 mM MOPS, pH 7.0, with the addition of 2% Dextrose and 0.08% casamino acids mixture, bio 101. inc,cat #10420-100). Incubation is carried out at 35° C. instead of 30° C., and cell growth is monitored at 590 nm at 24 and 48 hrs as described. All other aspects of the assay are identical. This assay was validated with amphotericin B, fluconazole, cilofungin (Ly-121019), Nikkomycin and terbinafine using the following Candida strains- (C.albicans, B311, C.parasilosis, C.tropicalis, C.lusitaniae, C.glabrata, and C. albicans 516)-Table II. All strains were from Dr. Kobayashi, Washington university.
# C.lusitaniae = test: as above; assay type: cell-based; details: Clavispora lusitaniae; pH 7.0/35° C./1x10^3 cells/mL, 48 hrs; read-out: EC50 - 48 HRS C.lusi.
# Protocol: as §1, §2, §3
# C.tropicalis = test: as above; assay type: cell-based; details: Candida tropicalis; pH 7.0/35° C./1x10^3 cells/mL, 48 hrs; read-out: EC50 - 48 HRS C.trop.
# Protocol: as §1, §2, §3
# C.glabrata = test: as above; assay type: cell-based; details: Nakaseomyces glabratus; pH 7.0/35° C./1x10^3 cells/mL, 48 hrs; read-out: EC50 - 48 HRS C.glab.
# Protocol: as §1, §2, §3
# C.albicans, B311 = test: as above; assay type: cell-based; details: Candida albicans, B311; pH 7.0/35° C./1x10^3 cells/mL, 48 hrs; read-out: EC50 - 48 HRS C.albicans
# Protocol: as §1, §2, §3
# C.parasilosis = test: as above; assay type: cell-based; details: pH 7.0/35° C./1x10^3 cells/mL, 48 hrs; read-out: EC50 - 48 HRS C.para
# Protocol: as §1, §2, §3
# [1] = system: Candida albicans, strain B311; test: Antifungal susceptibility testing, microdilution broth, pH 5.4/30° C./YNB; assay type: cell-based
# Protocol: Antifungal Screens were set up initially against Candida albicans, strain B311, and Cryotococcus neoformans, strain L210425. Both pathogens, (originally from the stock culture collection, Medical mycology research center, Washington university-Barnes hospital), were obtained from Dr.Kobayashi, Prof.of infectious diseases, Washington University, St.Louis, Mo.
# All cultures are maintained at 30° C. on Sabouraud's dextrose agar slants and subcultured at monthly intervals to fresh medium. All inocula for susceptibility testing are prepared in yeast nitogen base(YNB, Difco) broth.
# A loopful of growth from Sabouraud dextrose agar slant is inoculated into 4 ml of YNB broth media and incubated at 30° C. overnight (18-24 hrs) with constant agitation (Gyratory Shaker, New Brunswick Scientific). Prior to setting up susceptibility testing, the organisms are counted in a hemocytometer, and diluted as needed into assay media.
# 1) (Assay at DH 5.4/30° C. Incubation/YNB Media).
# Antifungal assays were carried out initially by a modification of the method published by Jones, et. al; (1), and communicated to Searle by Dr. Kobayashi, Washington University. [R. N. Jones et al, Manual of Clinical Microbiology, 4th ed., (1985)]
# The antifungal susceptibility testing consists of a microdilution broth procedure performed in 96 well microtiter plates (Costar, cat#3799). Briefly, test compounds from a 20 mM stock solution in DMSO are diluted into sterile, deionized water (final DMSO concentration not exceeding 1%), to yield 2× the desired concentration (100 uM, 10 uM and 1 uM for an initial screen, or a selected concentration range in serial 2 fold dilutions for EC50 determination). One hundred microliters (100 ul) of each concentration is dispensed into triplicate wells of a 96 well microtiter plate. Appropriate dilutions of a suspension of C.albicans (1×10^6 cells/ml) in 2× YNB is distributed into each of the wells, including growth control wells containing no test compound as well as control wells with 0.5% DMSO. Amphotericin B at 0.05, 1 and 5 ug/ml is included in each assay plate as a positive control. The plates are incubated at 30° C. and cell growth is scored by reading the absorbance at 590 nm on an Elisa plate reader(Dynatech, MR.5000).
# Candida albicans NMT = target: T1, Candida albicans NMT (Candida albicans, UniProt P30418); test: NMT enzyme inhibition assay (radiochemical HPLC end-point), Candida NMT; assay type: biochemical; details: for pIC50: Table V, read-out: IC50 caNMT
# T1 construct: made in house; host or cells: E. coli
# T1 sequence (P30418 1-451): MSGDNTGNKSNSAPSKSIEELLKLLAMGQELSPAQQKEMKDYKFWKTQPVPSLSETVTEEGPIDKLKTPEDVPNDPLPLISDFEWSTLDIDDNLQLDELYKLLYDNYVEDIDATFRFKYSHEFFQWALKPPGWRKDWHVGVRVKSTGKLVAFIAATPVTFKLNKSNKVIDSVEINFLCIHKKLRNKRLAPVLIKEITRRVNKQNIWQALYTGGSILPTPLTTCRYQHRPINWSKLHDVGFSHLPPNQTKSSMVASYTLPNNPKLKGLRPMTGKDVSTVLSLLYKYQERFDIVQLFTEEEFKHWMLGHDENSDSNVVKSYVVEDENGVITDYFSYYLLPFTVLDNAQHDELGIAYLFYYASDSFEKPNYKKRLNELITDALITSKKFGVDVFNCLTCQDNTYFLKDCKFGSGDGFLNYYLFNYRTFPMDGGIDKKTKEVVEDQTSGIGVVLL
# Protocol: Recombinant Candida albicans and human NMTs were expressed and purified from E. coli using previously described protocols. [D. A. Towler et al, Proc. Natl. Acad. Sci. USA, 84, 2707-2712 (1987); R. C. Weigand et al, J. Biol. Chem., 267, 8591-8598 (1992); R. J. Duronio et al, Proc. Natl. Acad. Sci. USA, 89, 4129-4133 (1992)] The ability of compounds to inhibit Candida NMT enzymatic activity was assessed using a radiochemical HPLC end-point assay as described previously for Saccharomyces cerevisiae and human NMTs. [D. Towler et al, Proc. Natl. Acad. Sci. USA, 83, 2812-2816 (1986); W. J. Rocque et al, J. Biol. Chem., 268, 9964-9971 (1991)] The donor substrate [^3H]myristoyl-coenzyme A was enzymatically synthesized from [^3H]myristic acid (50 Ci/mmol, Amersham, Arlington Heights, Ill.) and coenzyme A (Fluka Chemical Corp., Ronkonkoma, N.Y.), and purified as described previously. [W. J. Rocque et al, J. Biol. Chem., 268, 9964-9971 (1991)] The peptide acceptor substrate GNAASARR-NH2 was prepared by solid-phase peptide synthesis using the t-Boc amino acid methodology, followed by HF treatment and reverse-phase HPLC purification. Inhibitor stock solutions were prepared at 22 mM in DMSO; the final concentration of DMSO in each assay was 0.5% (v/v). Inhibition assays were carried out by combining variable amounts of inhibitor or buffer with […] of [^3H]myristoyl-coenzyme A (1 μCi, 9.09 Ci/mmol) and 2.2 nmoles of GNAASARR-NH2 in a total volume of 60 μL of 0.2 M N-[2-hydroxy-ethyl]piperazine-N′-[2-ethanesulfonic acid], pH 7.4, 2 mM DL-dithiothreitol, 0.2 mM ethylene glycol-bis-(β-aminoethyl ether) N,N,N′,N′-tetraacetic acid, and initiating the reaction by the addition of 50 μL of a Candida NMT solution (7-12 ng/50 μL). Assays with human NMT were identical except that they used 60-75 ng/50 μL of enzyme solution and 0.22 nmoles of GNAASARR-NH2. The reaction was quenched after 10 minutes at 24° C. by the addition of ice-cold MeOH, and the reaction products were separated and measured using C4 reverse-phase HPLC (Vydac 214TP10415; Separations Group, Hesperia, Calif.) and in-line scintillation counting using a Radiomatic A250 (Packard Instruments, Downers Grove, Ill.) and Ecolite(+) (ICN Biomedical, Costa Mesa, Calif.) as the scintillant. Selectivity was determined by calculating the ratio of the IC50 against human NMT to the IC50 against C. albicans NMT.
# [2] = B311, 24 h, pH 5.4, read-out: caEC50 24 hours
# [3] = read-out: % inhibition of caNMT
# [4] = B311, 24 hours, Table V (values agree with pH 5.4 assay), read-out: caEC50 24 hours
"pEC50 [1, 4]",Compound,"pEC50 [1, 2]",inhibition at 10 µM (Candida albicans NMT; [3]) [%],pIC50 (Candida albicans NMT),also measured
–,"C[C@@H]1[C@H](O)[C@@H](C)/C=C/C=C/C=C/C=C/C=C/C=C/C=C/[C@H](O[C@@H]2O[C@H](C)[C@@H](O)[C@H](N)[C@@H]2O)C[C@@H]2O[C@](O)(C[C@@H](O)C[C@@H](O)[C@H](O)CC[C@@H](O)C[C@@H](O)CC(=O)O[C@H]1C)C[C@H](O)[C@H]2C(=O)O [Amphotericin, amphotericin B]",–,–,–,"EC50 (C. albicans 516): 0.14 µg/mL; EC50 (C.lusitaniae): 0.42 µg/mL; EC50 (C.tropicalis): 0.44 µg/mL; EC50 (C.glabrata): 0.47 µg/mL; EC50 (C.albicans, B311): 0.11 µg/mL; EC50 (C.parasilosis): 0.31 µg/mL"
–,"Cc1nccn1CCCCc1ccc(CC(=O)N[C@@H](CO)C(=O)N[C@@H](CCCCN)C(=O)N[C@@H](C)C(=O)O)cc1 [Example 5, L-alanine, N-[N^2-[N-[[4-[4-(2-methyl-1H-imidazol-1-yl)butyl]phenyl]acetyl]-L-seryl]-L-lysyl]-, bis-trifluoroacetate]",4.17,27,–,–
4.01,"CC[C@H](C)[C@H](NC(=O)[C@H](CCCCN)NC(=O)[C@H](CO)NC(=O)Cc1ccc(CCCCn2ccnc2C)cc1)C(=O)O [Example 7, L-iso-leucine, N-[N^2-[N-[[4-[4-(2-methyl-1H-imidazol-1-yl)butyl]phenyl]acetyl]-L-seryl]-L-lysyl]-, bis-trifluoroacetate]",–,–,4.00,–
–,"Cc1nccn1CCCCc1ccc(CC(=O)N[C@@H](CO)C(=O)N[C@@H](CCCCN)C(=O)N[C@@H](CC(C)C)C(=O)O)cc1 [Example 8, L-Leucine, N-[N^2-[N-[[4-[4-(2-Methyl-1H-imidazol-1-yl)butyl]phenyl]acetyl]-L-seryl]-L-lysyl]-, bis-trifluoroacetate]",< 4.00,78,–,–
< 4.00,"Cc1nccn1CCCCc1ccc(CC(=O)N[C@@H](CO)C(=O)N[C@@H](CCCCN)C(=O)NC(CC(=O)O)C2CCCCCCC2)cc1 (mixture of isomers) [Example 10, Lysinamide, N-[1-Cyclooctyl-2-carboxyethyl]-N^2-[N-[[4-[4-(2-methyl-1H-imidazol-1-yl)butyl]phenyl]acetyl]-L-seryl]-, ±, bis-trifluoroacetate]",–,–,–,"inhibition at 10 µM (Candida albicans NMT; @ 10 μM, read-out: % inhibition of caNMT): 40%"
–,"CC(C)C[C@H](NC(=O)[C@H](CCCCN)NC(=O)[C@H](CO)NC(=O)CCCCCCCCCCN)C(=O)O [Example 4, L-leucine, N-[[(11-amino-undecanoyl)-L-seryl]-L-lysyl]-, bis-trifluoroacetate] (H-[Aun]SKL-OH)",4.20,–,5.17,–
< 4.00,"Cc1nccn1CCCCc1ccc(CC(=O)N[C@@H](CO)C(=O)N[C@@H](CCCCN)C(=O)NC(CC(=O)O)C2CCCCC2)cc1 (mixture of isomers) [Example 9, Lysinamide, N-[1-Cyclohexyl-2-carboxyethyl]-N^2-[N-[[4-[4-(2-methyl-1H-imidazol-1-yl)butyl]phenyl]acetyl]-L-seryl]-, ±, bis-trifluoroacetate]",–,–,5.22,–
–,"Cc1nccn1CCCCc1ccc(CC(=O)N[C@@H](CO)C(=O)N[C@@H](CCCCN)C(=O)N[C@H](CC2CCCCC2)C(=O)O)cc1 [Example 11, D-alanine, 3-cyclohexyl-N-[N^2-[N-[[4-[4-(2-methyl-1H-imidazol-1-yl)butyl]phenyl]acetyl]-L-seryl]-L-lysyl]-, bis-trifluoroacetate]",< 4.00,–,4.74,–
–,"NCCCCCCCCCCC(=O)N[C@@H](CO)C(=O)N[C@@H](CCCCN)C(=O)N[C@@H](CC1CCCCC1)C(=O)O [Example 3, L-Alanine, 3-cyclohexyl-N-[[(11-amino-undecanoyl)-L-seryl]-L-lysyl]-, bis-trifluoroacetate] (H-[Aun]SK[Cha]-OH)",4.48,–,–,inhibition at 11 µM (Candida albicans NMT; [3]): 80%
–,"Cc1nccn1CCCCc1ccc(CC(=O)N[C@@H](CO)C(=O)N[C@@H](CCCCN)C(=O)N[C@@H](Cc2ccccc2)C(=O)O)cc1 [Example 6, L-Alanine, 3-phenyl-N-[N^2-[N-[[4-[4-(2-methyl-1H-imidazol-1-yl)butyl]phenyl]acetyl]-L-seryl]-L-lysyl]-, bis-trifluoroacetate]",4.10,36,–,–
